According to ChEMBL document CHEMBL1201862, “PubChem BioAssay data set” (2004):
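A five-concentration, 48-hour dose response in 96-well plates underlies each endpoint, interpolated linearly between surrounding concentrations. At the GI50, growth is halved.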 Activity calls are given as the source filed them. No stated cut-off is given here; in the data, active = GI50 up to about 1.1 µM and inactive = higher.

How the values were obtained:
Experiment in all cases: NCI tumour cell line growth inhibition, 48 h
[1] = test system: UACC-257
[2] = test system: SN12C
[3] = test system: U-251
[4] = test system: SF-539
[5] = test system: RXF 393
[6] = test system: SW-620
[7] = test system: HT-29
[8] = test system: OVCAR-8
[9] = test system: NCI-H522
[10] = test system: COLO 205
[11] = test system: SNB-19
[12] = test system: M14
[13] = test system: K562
[14] = test system: HOP-92
[15] = test system: Malme-3M
[16] = test system: OVCAR-3
[17] = test system: HCC 2998
[18] = test system: MOLT-4
[19] = test system: SK-MEL-28

Measured: GI50

C/C(=N\NS(=O)(=O)c1ccc(C)cc1)C(CN1CCOCC1)C(c1ccccc1)c1c(O)c2ccccc2oc1=O (configuration not stated)
inactive: [1] > 100 µM | [2] > 100 µM | [3] > 100 µM | [4] > 100 µM | [5] 68.2 µM | [6] 30.6 µM | [7] > 100 µM | [8] > 100 µM | [9] 59.8 µM | [10] 40.8 µM | [11] > 100 µM | [12] > 100 µM | [13] 53.2 µM | [14] 59.8 µM | [15] > 100 µM | [16] 89.5 µM

C/C(=N\NC(N)=O)C(CN1CCCCC1)C(c1ccccc1)c1c(O)c2ccccc2oc1=O (configuration not stated)
inactive: [1] > 100 µM | [2] > 100 µM | [17] > 100 µM | [18] > 100 µM | [3] > 100 µM | [4] > 100 µM | [5] > 100 µM | [6] > 100 µM | [7] > 100 µM | [8] > 100 µM | [9] > 100 µM | [10] > 100 µM | [11] > 100 µM | [19] > 100 µM | [12] > 100 µM | [13] > 100 µM | [15] > 100 µM | [16] > 100 µM

Cn1c(=O)c2[nH]cnc2n(CC(N)=O)c1=O
inactive: [2] > 100 µM | [18] > 100 µM | [3] > 100 µM | [4] > 100 µM | [6] > 100 µM | [7] > 100 µM | [8] > 100 µM | [9] > 100 µM | [10] > 100 µM | [11] > 100 µM | [19] > 100 µM | [12] > 100 µM | [13] > 100 µM | [14] > 100 µM | [15] > 100 µM | [16] > 100 µM

N#C/C(=C\c1cc(Br)c(O)c(Br)c1)c1cccnc1
inactive: [1] 23.6 µM | [2] 34.7 µM | [17] 36.1 µM | [18] 23.9 µM | [3] 16.7 µM | [4] 26.2 µM | [5] 41.3 µM | [6] 28.8 µM | [7] 34.9 µM | [8] 35.6 µM | [9] 30.6 µM | [10] 22.8 µM | [11] 39.1 µM | [19] 27.6 µM | [12] 26.1 µM | [13] 23.6 µM | [15] 17.2 µM | [16] 21 µM

CC(C)C1CO[C@]2(C)CCC(=O)N12 (some centres not stated)
inactive: [1] > 100 µM | [2] > 100 µM | [18] > 100 µM | [3] > 100 µM | [4] > 100 µM | [5] > 100 µM | [6] > 100 µM | [7] > 100 µM | [8] > 100 µM | [9] > 100 µM | [10] > 100 µM | [11] > 100 µM | [19] > 100 µM | [12] > 100 µM | [13] > 100 µM | [14] > 100 µM | [15] > 100 µM | [16] > 100 µM

COC(=O)c1c/c(=N\NC(=O)CC(=O)Nc2ccc(C)cc2)c2ccccc2o1
inactive: [1] > 100 µM | [2] > 100 µM | [18] > 100 µM | [3] > 100 µM | [4] > 100 µM | [5] > 100 µM | [6] > 100 µM | [7] > 100 µM | [8] > 100 µM | [9] > 100 µM | [10] > 100 µM | [11] > 100 µM | [19] > 100 µM | [12] > 100 µM | [13] > 100 µM | [14] > 100 µM | [15] > 100 µM | [16] > 100 µM

COc1ccc2c(CCNS(=O)(=O)c3ccccc3)c(C(C)=O)[nH]c2c1[N+](=O)[O-]
inactive: [1] > 100 µM | [2] > 100 µM | [17] > 100 µM | [18] > 100 µM | [3] > 100 µM | [4] 31.8 µM | [6] > 100 µM | [7] > 100 µM | [8] 65.2 µM | [9] > 100 µM | [10] > 100 µM | [11] > 100 µM | [19] > 10 µM | [12] > 100 µM | [13] > 100 µM | [16] > 100 µM

CC(C)C(Nc1c2ccccc2[n+]([O-])c2ccccc12)C(=O)O (configuration not stated)
inactive: [1] 66.2 µM | [2] 61.1 µM | [17] > 100 µM | [18] 10 µM | [3] > 100 µM | [6] > 100 µM | [7] > 100 µM | [8] 53.2 µM | [9] 81.3 µM | [10] 52.5 µM | [11] > 100 µM | [19] 43.1 µM | [12] 91.2 µM | [13] 38.5 µM | [15] 28.1 µM | [16] > 100 µM

O=C(CC(=O)Nc1cccc(Cl)c1)NNCC(=O)Nc1nnc(-c2ccccc2)s1
inactive: [1] 99.1 µM | [2] > 100 µM | [17] > 100 µM | [18] 34.9 µM | [3] 34 µM | [4] > 100 µM | [6] 39.4 µM | [7] 80 µM | [8] 20.8 µM | [9] 64.1 µM | [10] > 100 µM | [11] 36 µM | [19] > 100 µM | [12] 30.4 µM | [13] 27.4 µM | [16] 32.7 µM

COc1ccc(-c2cc(Cc3cccs3)c(=O)[nH]n2)cc1
inactive: [1] 42.3 µM | [2] > 100 µM | [17] > 100 µM | [3] > 100 µM | [4] > 100 µM | [5] 83.8 µM | [6] > 100 µM | [7] 96.2 µM | [8] > 100 µM | [10] > 100 µM | [11] > 100 µM | [19] 95.1 µM | [14] 49.9 µM | [15] > 100 µM | [16] 29.6 µM

COC(=O)c1ccc(OCc2ccc3oc(=O)c(-c4ccccc4)nc3c2)cc1
inactive: [1] > 100 µM | [2] > 100 µM | [17] > 100 µM | [18] 22.9 µM | [3] > 100 µM | [4] > 100 µM | [6] 57.3 µM | [7] > 100 µM | [8] > 100 µM | [9] 33.6 µM | [10] 33.9 µM | [11] > 100 µM | [19] > 100 µM | [12] > 100 µM | [13] 27.9 µM | [15] 59.2 µM | [16] 44.9 µM

[N-]=[N+]=CC(=O)C1(C(=O)C=[N+]=[N-])CC1
inactive: [1] > 100 µM | [2] > 100 µM | [17] > 100 µM | [18] > 100 µM | [3] > 100 µM | [4] > 100 µM | [5] > 100 µM | [6] > 100 µM | [7] > 100 µM | [8] > 100 µM | [9] > 100 µM | [10] > 100 µM | [11] > 100 µM | [19] > 100 µM | [12] > 100 µM | [13] > 100 µM | [15] > 100 µM | [16] > 100 µM
